The NIST ThermoML archive (doi:10.1016/j.jct.2004.06.009)

Assay: molar heat capacity at constant pressure
Conditions: 101.33 kPa, Crystal 2

CC12CC3CC(C1)CC(C)(C3)C2 [1,3-dimethyladamantane]
Conditions | molar heat capacity at constant pressure [J/K/mol]
8.24 K | 2.062
8.72 K | 2.425
9.2 K | 2.838
9.68 K | 3.291
10.16 K | 3.758
10.73 K | 4.336
11.38 K | 5.1
12.04 K | 5.875
12.71 K | 6.75
13.36 K | 7.626
14.03 K | 8.543
14.69 K | 9.462
15.35 K | 10.41
16.02 K | 11.41
16.68 K | 12.45
17.35 K | 13.38
18.02 K | 14.36
18.7 K | 15.27
19.36 K | 16.17
20.03 K | 17.19
20.92 K | 18.43
22.01 K | 19.87
23.09 K | 21.29
24.18 K | 22.59
25.26 K | 23.98
26.35 K | 25.2
27.44 K | 26.35
30.7 K | 29.56
31.79 K | 30.56
32.87 K | 31.44
33.96 K | 32.41
35.04 K | 33.24
36.12 K | 34.11
37.2 K | 34.83
38.29 K | 35.57
39.37 K | 36.35
40.44 K | 37.09
41.52 K | 37.79
42.59 K | 38.45
43.67 K | 39.15
44.74 K | 39.94
45.82 K | 40.58
46.91 K | 41.26
49.08 K | 42.53
50.15 K | 43.17
51.21 K | 43.97
52.28 K | 44.55
53.34 K | 45.28
54.4 K | 45.93
55.46 K | 46.84
56.52 K | 47.67
58.46 K | 49.49
60.51 K | 51.1
62.53 K | 52.46
63 K | 52.93
63.91 K | 53.57
64.83 K | 54.06
65.75 K | 54.71
66.66 K | 55.08
67.58 K | 55.66
68.49 K | 56.24
69.41 K | 57.05
71.4 K | 57.87
73.43 K | 58.84
75.49 K | 59.92
77.45 K | 60.94
79.6 K | 62.15
81.55 K | 63.11
82.51 K | 63.18
83.54 K | 64.04
84.58 K | 64.38
85.62 K | 65.28
86.66 K | 66.25
87.69 K | 66.5
88.73 K | 67.15
89.76 K | 68.17
90.79 K | 68.78
91.82 K | 69.62
92.85 K | 70.65
93.88 K | 71.07
94.91 K | 71.83
95.93 K | 72.84
96.96 K | 73.52
97.98 K | 74.02
99.01 K | 74.65
100.04 K | 75.78
101.06 K | 77.14
102.08 K | 77.29
103.1 K | 78.16
104.13 K | 78.65
105.15 K | 79.24
106.17 K | 79.77
107.18 K | 80.75
108.2 K | 81.19
109.21 K | 82.31
110.22 K | 83.3
111.24 K | 83.76
112.25 K | 84.74
113.26 K | 85.56
114.27 K | 86.06
115.29 K | 86.71
116.3 K | 87.61
117.31 K | 88.53
118.32 K | 89.31
119.33 K | 90.06
120.34 K | 90.8
121.35 K | 91.66
122.36 K | 92.56
123.36 K | 93.09
124.37 K | 94.23
125.38 K | 94.72
126.39 K | 95.77
127.4 K | 96.32
128.4 K | 97.15
129.4 K | 97.61
130.4 K | 98.84
131.41 K | 99.23
132.41 K | 99.74
133.41 K | 100.92
135.41 K | 102.12
136.41 K | 102.85
137.41 K | 103.66
138.41 K | 104.15
139.41 K | 105.02
140.41 K | 106
141.4 K | 106.56
142.4 K | 107.72
143.4 K | 107.89
144.4 K | 108.44
145.37 K | 109.47
146.37 K | 110.32
147.36 K | 111.05
148.36 K | 112.04
149.35 K | 112.85
150.34 K | 113.58
151.33 K | 114.44
153.32 K | 115.43
154.31 K | 116.66
155.3 K | 117.21
156.29 K | 118.03
157.28 K | 118.57
158.26 K | 119.55
159.25 K | 119.81
160.24 K | 120.34
161.21 K | 122.14
162.2 K | 123.06
163.18 K | 123.69
